Data on three compounds can be found in publication PMC5635026, “Homo-PROTACs: bivalent small-molecule dimerizers of the VHL E3 ubiquitin ligase to induce self-degradation” (Nature Communications, 2017).

Assay [1] addresses T1, pVHL30 (Homo sapiens, UniProt P40337). In words: Immunoblot of pVHL30 protein level in HeLa cells after compound treatment. It is filed as cell-based. The arrangement: endogenous in cells; host or cells: HeLa. Conditions: for depletion of target protein (pVHL30 / VHL) / remaining activity at 1 µM: 10 h; for remaining activity at 1 µM: DMSO = 100, Fig. 4a, read-out: pVHL30 band quantification normalized to 0.1% DMSO. On the procedure: (§1) Cell culture. Human cell lines HeLa, U2OS and HEK 293, purchased from ATCC, were propagated in DMEM supplemented with 10% fetal bovine serum (FBS), L- glutamine, 100 μg ml^−1 of penicillin/streptomycin at 37 °C and 5% CO2. Cells were maintained for no more than 30 passages. All cell lines were routinely tested for mycoplasma contamination using MycoAlert kit from Lonza. For compound treatment experiments, cells were transferred in six-well plates with either 3 × 10^5 or 5 × 10^5 cells per well in 2 ml of media. At 80% confluence, cells were treated with compounds at the desired concentration, reaching final DMSO concentration of 0.1% v/v. Cells were incubated at 37 °C and 5% CO2 for the desired time before harvesting.
(§2) Immunoblotting. Cells were lysed in lysis buffer (20 mM Tris pH 8, 150 mM NaCl, 1% Triton × 100) and a protease inhibitor cocktail (Roche) per 10 ml buffer. For protein extracts, the dishes were placed on ice. The media was aspirated and the tissue layer washed twice with ice-cold phosphate buffer saline (PBS). Lysis buffer (120 μl) was added and the cells detached from the surface with a cell scraper. After removal of the insoluble fraction by centrifugation, the protein concentration of the supernatant was determined by Pierce™ Coomassie (Bradford) Protein Assay Kit. Protein extracts were fractionated by SDS-PAGE on 4–12% Tris-Acetate NuPage® Novex® (Life Technologies) polyacrylamide gels and transferred to a nitrocellulose membrane using wet transfer. The membrane was then blocked with 5 % w/v Bovine serum albumin (BSA) in Tris-buffered saline (TBS) with 0.1% w/v Tween-20. For detecting proteins the following primary antibodies in the given concentrations were used: anti-β-Actin (Cell Signaling Technology, 4970S, 13E5) 1:2000, anti-VHL (Cell Signaling Technology, #68547) 1:1000, anti-Hif-1α (BD Biosciences, 610959, clone 54) 1:1,000, anti-hydroxy-HIF-1α (Hyp564) (Cell Signaling Techonology; #3434) 1:1,000, anti-PHD2 (Bethyl Laboratories; A300-322A) 1:1,000, anti-PHD3 (Bethyl Laboratories; A300-327A) 1:1000, anti-CRBN (Proteintech; 11435-1-AP) 1:1,000. Following incubation with a horseradish peroxidase-conjugated secondary antibody (Cell Signaling Technology), the signal was developed using enhanced chemiluminescence (ECL) Western Blotting Detection Kit (Amersham) on Amersham Hyperfilm ECL film (Amersham). Band quantification was performed using ImageJ software and reported as relative amount as ratio of the each protein band relative to the lane’s loading control. The values obtained were then normalized to 0.1% DMSO vehicle control. See Supplementary Fig. 12 for full-scanned images of western-blots shown in the main text figures.
In general terms: Immunoblotting shows a protein as a band on a membrane.

Assay [2] has as its system Dermcidin (DCD). Kind of assay: TMT MS proteomics in HeLa cells, DCD abundance. The format is cell-based, Homo sapiens. Conditions: 1 µM, 10 h, two replicates. On the procedure: (§3) MS proteomics. Sample preparation. HeLa cells were seeded at 5 × 10^6 on a 10 cm plate 16 h before treatment. […] Cells were incubated at 37 °C and 5% CO2 for 10 h before harvesting. Cells were placed on ice and medium was removed and cells were washed twice with cold PBS. Cells were lysed in 0.5 ml of 100 mM Tris pH 8.0, 4% (w/v) SDS supplemented with protease inhibitor cocktail (Roche). The lysate was pulse sonicated briefly and then centrifuged at 17,000 × g for 15 min at 4 °C. The supernatant fraction of cell extract was snap-frozen in liquid nitrogen and stored in −80 °C freezer. Further sample processing, digestion, desalting, labeling and fractionation were performed as previously described.
(§4) nLC-MS/MS analysis. The TMT 10plex fractions were first analyzed as previously described. Briefly, the TMT 10plex fractions were analyzed sequentially on a Q Exactive HF Hybrid Quadrupole-Orbitrap Mass Spectrometer (Thermo Scientific) coupled to an UltiMate 3000 RSLCnano UHPLC system (Thermo Scientific) and EasySpray column (75 μm × 50 cm, PepMap RSLC C18 column, 2 μm, 100 Å, Thermo Scientific). The MS2 isolation window was set to 0.4 Da and the resolution set at 120,000. MS2 resolution was set at 60,000. The AGC targets for MS1 and MS2 were set at 3e^6 ions and 1e5 ions, respectively. The normalized collision energy was set at 32%. […] After the first analysis, the TMT labeled fractions were re-analyzed on the Q-Exactive HF using the same instrument settings and a target list generated from a theoretical trypsin digest of VHL. […] After the second analysis, two fractions were further analyzed using a targeted SIM/ddMS2 method on the Q-Exactive HF. […]
(§5) Peptide and protein identification. All the raw MS data files from the three analyses were merged and searched against the Uniprot-sprot-Trembl-Human-Canonical database by Maxquant software 1.5.3.30 for protein identification and TMT reporter ion quantitation. […] Quantified proteins were filtered if the absolute fold-change difference between the two DMSO replicates was ≥ 1.5.

In assay [3] the test system is Alsin (ALS2). Kind of assay: TMT MS proteomics in HeLa cells, ALS2 abundance. It is filed as cell-based, Homo sapiens. Conditions: 1 µM, 10 h, two replicates. On the procedure:
as §3, §4, §5

The test system of assay [4] is Protein-glutamine gamma-glutamyltransferase E (TGM3). Kind of assay: TMT MS proteomics in HeLa cells, TGM3 abundance. The format is cell-based, Homo sapiens. Conditions: 1 µM, 10 h, two replicates. The protocol: as §3, §4, §5
Assay [5] relates to Putative glycerol kinase 5 (GK5). In words: TMT MS proteomics in HeLa cells, GK5 abundance. The format is cell-based, Homo sapiens. Conditions: 1 µM, 10 h, two replicates. On the procedure: as §3, §4, §5
Assay [6] deals with HeLa cells. Kind of assay: Isobaric tagging (TMT) MS proteomics in HeLa cells, proteome-wide degradation. Conditions: 1 µM for 10 h, compared to DMSO or VHL inhibitor treatment. The format is cell-based, Human. The protocol:
as §3, §4, §5

Assay [7] concerns the target T1, pVHL30. Kind of assay: Immunoblot of pVHL30 protein level in U2OS cells (time course). The arrangement: endogenous in cells. Conditions: for cellular efficacy at longer time points: after 36 h; for time of treatment to complete degradation of pVHL30: time course. The format is cell-based. On the procedure:
as §1, §2

T1 sequence (P40337 whole entry): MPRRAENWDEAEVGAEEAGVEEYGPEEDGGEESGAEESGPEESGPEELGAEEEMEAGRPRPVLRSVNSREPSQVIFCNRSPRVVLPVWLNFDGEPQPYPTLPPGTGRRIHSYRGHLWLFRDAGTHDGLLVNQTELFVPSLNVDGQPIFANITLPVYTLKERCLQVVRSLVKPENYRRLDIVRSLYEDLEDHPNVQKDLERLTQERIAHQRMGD

Consider `Cc1ncsc1-c1ccc(CNC(=O)[C@@H]2C[C@@H](O)CN2C(=O)[C@@H](NC(=O)COCCOCCOCCOCCOCC(=O)N[C@H](C(=O)N2C[C@H](O)C[C@H]2C(=O)NCc2ccc(-c3scnc3C)cc2)C(C)(C)C)C(C)(C)C)cc1` [CM10, N ^1 ,N ^17-bis((S)-1-((2S,4R)-4-hydroxy-2-((4-(4-methylthiazol-5-yl)benzyl)carbamoyl)pyrrolidin-1-yl)-3,3-dimethyl-1-oxobutan-2-yl)-3,6,9,12,15-pentaoxaheptadecanediamide], for which, in assay [1] (1 µM), the “depletion of target protein (pVHL30 / VHL)” value is “total knockdown” and the remaining activity at 1 µM was determined as 3%. Further, the “average normalized ratio to DMSO, DCD” value in assay [2] is reported as 1.33. In addition, in assay [3], the “average normalized ratio to DMSO, ALS2” value stood at 1.00. Moreover, the “average normalized ratio to DMSO, TGM3” value in assay [4] was found to be 0.99. Moreover, in assay [5], the “average normalized ratio to DMSO, GK5” value was determined as 1.22. The “proteins depleted amongst 6,450 detected proteins” value in assay [6] is “no proteins other than Cul2 were substantially depleted”. Besides, in assay [7], the “cellular efficacy at longer time points” value is “retained their efficacy” and the “time of treatment to complete degradation of pVHL30” value (shortened to “time of treatment”) was 2 h.
For `Cc1ncsc1-c1ccc(CNC(=O)[C@@H]2C[C@@H](O)CN2C(=O)[C@@H](NC(=O)COCCOCCOCCOCCOCCOCC(=O)N[C@H](C(=O)N2C[C@H](O)C[C@H]2C(=O)NCc2ccc(-c3scnc3C)cc2)C(C)(C)C)C(C)(C)C)cc1` [CM11, N ^1 ,N ^20-bis((S)-1-((2S,4R)-4-hydroxy-2-((4-(4-methylthiazol-5-yl)benzyl)carbamoyl)pyrrolidin-1-yl)-3,3-dimethyl-1-oxobutan-2-yl)-3,6,9,12,15,18-hexaoxaicosanediamide], the “increase in cellular activity compared to parent inhibitor VH032” value in assay [1] is over 1000 fold. Further, in assay [1] (1 µM), the “depletion of target protein (pVHL30 / VHL)” value is “total knockdown” and the remaining activity at 1 µM stood at 1%. Besides, the pVHL30 levels detected entry in assay [1] (1 µM, after 24–36 h treatment) is given as “up to 11%”. The “decrease of pVHL30 level” value in assay [1] (1 µM, after 2 h) is recorded as over 70%. The “decrease of pVHL30 level” value in assay [1] (1 µM, after 8 h) was “essentially to completion”. In addition, in assay [1] (4 h), the “DC99 (complete depletion of pVHL30)” value amounted to 10 nM. Further, the “effective degrading concentrations lower than inhibitory concentrations of VH032” value in assay [1] (compared to VH032) is recorded as > 3 orders of magnitude. Moreover, the “average normalized ratio to DMSO, DCD” value in assay [2] is 0.87. The “average normalized ratio to DMSO, ALS2” value in assay [3] came to 0.98. Also, in assay [4], the “average normalized ratio to DMSO, TGM3” value is reported as 0.72. For the same compound, the “average normalized ratio to DMSO, GK5” value in assay [5] is 0.94. Also, the “proteins depleted amongst 6,450 detected proteins” value in assay [6] is “no proteins other than Cul2 were substantially depleted”. Further, in assay [7], the “cellular efficacy at longer time points” value is given as “retained their efficacy” and the “time of treatment” value worked out at 1 h.
In the case of `Cc1ncsc1-c1ccc(CNC(=O)[C@@H]2C[C@@H](O)CN2C(=O)[C@@H](NC(=O)COCCOCCOCCOCC(=O)N[C@H](C(=O)N2C[C@H](O)C[C@H]2C(=O)NCc2ccc(-c3scnc3C)cc2)C(C)(C)C)C(C)(C)C)cc1` [CM09, N ^1 ,N ^14-bis((S)-1-((2S,4R)-4-hydroxy-2-((4-(4-methylthiazol-5-yl)benzyl)carbamoyl)pyrrolidin-1-yl)-3,3-dimethyl-1-oxobutan-2-yl)-3,6,9,12-tetraoxatetradecanediamide], the remaining activity at 1 µM in assay [1] (1 µM) is 19%. Besides, the “degradation of pVHL in time course” value in assay [1] (1 µM, even in the longer time points) was “Incomplete degradation”. For the same compound, the “average normalized ratio to DMSO, DCD” value in assay [2] worked out at 1.41. Besides, the “average normalized ratio to DMSO, ALS2” value in assay [3] was determined as 0.98. In addition, the “average normalized ratio to DMSO, TGM3” value in assay [4] stood at 1.74. Further, the “average normalized ratio to DMSO, GK5” value in assay [5] came out at 1.05. Moreover, the “proteins depleted amongst 6,450 detected proteins” value in assay [6] is given as “no proteins other than Cul2 were substantially depleted”. Also, in assay [7], the “cellular efficacy at longer time points” value is listed as “lost its cellular efficacy” and the “time of treatment” value is reported as 2 h.
